# In patent US20240294478A1, “ANTI-CANCER COMPOUNDS AND METHODS OF USE” (YALE UNIVERSITY, priority 2021, published 2024):
# Assays:
# LN229 MGMT+ shMLH1 cells = assay: Short-term viability assay, LN229 MGMT+ shMLH1; format: cell-based; conditions: Homo sapiens, LN-229, Table III, read-out: IC50 against LN229 cell lines, MGMT MMR−
# Protocol: The activity of KL-50 in MGMT-LN229 cells engineered to lack expression of other key MMR proteins including MSH6, MLH1, PMS2, and MSH3 was also confirmed. Western blotting was performed in LN229 MGMT+/−cells with stable expression of shRNA targeting MSH6, MLH1, PMS2, or MSH3 to confirm depletion of the shRNA targets. In shMSH6 cells, there was reduced expression of MSH2, and in shMLH1 cells, there was loss of PMS2, due to destabilization in the setting of loss of their heterodimeric partners. GAPDH serves as loading control. […] Short-term viability assay curves for KL-50 in LN229 MGMT+/−, MMR+/shMSH6 cells. […] Short-term viability assay curves for KL-50 in LN229 MGMT+/−, MMR+/shMLH1 cells. […] Short-term viability assay curves for KL-50 in LN229 MGMT+/−, MMR+/shPMS2 cells. […] Short-term viability assay curves for KL-50 in LN229 MGMT+/−, MMR+/shMSH3 cells.
# MMR Protein shRNA Knockdown. pGIPZ lentiviral shRNA vectors targeting MSH2, MSH6, MLH1, PMS2, and MSH3 were purchased from Horizon Discovery (Table IV). […]
# Short-term Cell Viability Assay. […] Cells were imaged on a Cytation 3 imaging reader (BioTek) and quantified using CellProfiler software. For in vitro short-term growth delay experiments, IC50 values were determined from the nonlinear regression equation, [inhibitor] vs normalized response with variable slope.
# [1] = test system: LN229 MGMT−/MMR− flank tumors; assay: Murine flank tumor model, LN229 MGMT-/MMR-; format: in vivo; conditions: for tumor growth, MGMT−/MMR− flank tumors: P.O.; for median OS: LN229 MGMT−/MMR− flank tumor-bearing mice, 5 mg/kg
# Text: FIGS. 9A-91: KL-50 is safe and efficacious on both MGMT−/MMR+ and MGMT−/MMR-flank tumors over a wide range of treatment regimens and conditions. […] (FIG. 9C) Mean body weight of mice during LN229 flank tumor experiments. (FIG. 9D) Kaplan-Meier analysis of LN229 MGMT−/MMR− xenograft flank tumor-bearing mice to determine survival rate based on death, removal from study if mouse body weight loss exceeded 20% of initial body weight, or if tumor volume exceeded 2000 mm^3. […] (FIGS. 9H-91) Xenograft LN229 MGMT−/MMR+ and LN229 MGMT−/MSH6—flank tumors with a larger average starting tumor size of −400 mm^3 and −350 mm^3 respectively, treated with 3 weekly cycles of P.O administration of 10% cyclodextrin (n=4) or KL-50 (n=4, 3 cycles of 25 mg/kg on Monday, Wednesday, and Friday). The study period was limited by control groups which had to be euthanized for exceeding the ethical maximum allowed tumor size, thus ending the study. In all panels, points, mean; error bars, SEM; *, P<0.05; **, P<0.01; ***, P<0.001; ****, P<0.0001; ns, not significant.
# Mouse Protocols for Flank Studies. A mouse tumor model was established by subcutaneously implanting human LN229 (MGMT−/MMR+) or LN229 (MGMT−/MMR−) cells. Cells were cultured as a monolayer in DMEM+10% FBS (Thermo Fisher) at 37° C. in a humidified atmosphere with 5% CO2 and passaged between one and three days prior to implantation and media was replaced every 2-3 days as needed to maintain cell viability. Cells were not allowed to exceed 80% confluency. On the day of implantation, cells were trypsinized, washed with complete media and pelleted by centrifugation at 1200 rpm for 5 minutes. The supernatant was decanted, and cells were washed three times with sterile PBS and pelleted by centrifugation. During the final centrifugation, viability was determined using trypan blue exclusion. Cells were resuspended in sterile PBS and diluted 1:1 in Matrigel (Coming, Cat #47743-716) for a final concentration of 5×10^6 cells/100 μL. 5 million cells were injected into the flank of female nude mice (Envigo, Hsd:Athymic Nude-Fox1nu, 3-4 weeks age, 15 g). […] Caliper measurements were obtained during the dosing period and at least two weeks following treatment. Mice were euthanized if body weight loss exceeded 20% or if tumor volume increased to greater than 2000 mm^3. Kaplan-Meier analysis was used to evaluate survival rate based on death or removal from study.
SMILES,IC50 (LN229 MGMT+ shMLH1 cells) [µM],"tumor growth, MGMT−/MMR− flank tumors ([1]; 5 mg/kg MWF x 3 weeks)","body weight during flank tumor experiments ([1]; 5 mg/kg MWF x 3 weeks, compared to TMZ or control)",median OS ([1]; Kaplan-Meier),"increase in median OS for KL-50 vs TMZ ([1]; Kaplan-Meier, MGMT−/MMR− flank)"
NC(=O)c1ncn2c(=O)n(CCF)nnc12 [KL-50],252 ± 28,potently suppressed tumor growth,no significant changes in body weight,greater than 15 weeks,greater than 5 week
"Cn1nnc2c(C(N)=O)ncn2c1=O [TMZ, 4-methyl-5-oxo-2,3,4,6,8-pentazabicyclo[4.3.0]nona-2,7,9-triene-9-carboxamide, reference compound]",769 ± 100,no efficacy,–,10 weeks,–
